Results reported in ChEMBL document CHEMBL1138959, “Novel class of cyclophosphamide prodrug: cyclophosphamide spiropiperaziniums (CPSP)” (Bioorg Med Chem Lett, 2006).

Assays:
H22 [1] = assay: Antitumor activity against H22 cells implanted in mouse at 30 mg/kg, ip; assay type: functional; conditions: route intraperitoneal; for inhibition in vivo at 30 mg/kg: Mus musculus, H22, ip
CCRF S-180 [2] = assay: Antitumor activity against S180 cells implanted in mouse at 30 mg/kg, ip; assay type: functional; conditions: route intraperitoneal; for inhibition in vivo at 30 mg/kg: Mus musculus, CCRF S-180, ip
H22 [3] = assay: Antitumor activity against H22 cells implanted in mouse at 60 mg/kg, ip; assay type: functional; conditions: route intraperitoneal
CCRF S-180 [4] = assay: Antitumor activity against S180 cells implanted in mouse at 60 mg/kg, ip; assay type: functional; conditions: CCRF S-180, ip, route intraperitoneal
CCRF S-180 [5] = assay: Antitumor activity against S180 cells implanted in mouse at 15 mg/kg, ip; assay type: functional; conditions: CCRF S-180, ip, route intraperitoneal
H22 [6] = assay: Antitumor activity against H22 cells implanted in mouse at 15 mg/kg, ip; assay type: functional; conditions: route intraperitoneal
[7] = Toxicity in ip dosed mouse; assay type: organism-based; conditions: in vivo

Row | SMILES | inhibition in vivo at 30 mg/kg (H22 [1]) [%] | inhibition in vivo at 30 mg/kg (CCRF S-180 [2]) [%] | further results
1 | O=P1(N2CC[N+]3(CCOCC3)CC2)NCCCO1 (centres undefined) | 32.5 | -27.6 | –
2 | CC1CC[N+]2(CC1)CCN(P1(=O)NCCCO1)CC2 (centres undefined) | 32.2 | -13.3 | –
3 | O=P1(N2CC[N+]3(CCCC3)CC2)NCCCO1 (centres undefined) | 17.3 | 26.7 | –
4 | O=P1(N2CC[N+]3(CCc4ccccc4C3)CC2)NCCCO1 (centres undefined) | – | 18.9 | –
5 | O=P1(N2CC[N+]3(CCN(Cc4ccccc4)CC3)CC2)NCCCO1 (centres undefined) | – | 33.7 | –
6 | C[N+]1(C)CCN(P2(=O)NCCCO2)CC1 (centres undefined) | 28.8 | 33.5 | –
7 | O=P1(N2CC[N+]3(CCNCC3)CC2)NCCCO1 (centres undefined) | 8.64 | 10.7 | –
8 | CC1C[N+]2(CCN(P3(=O)NCCCO3)CC2)CC(C)O1 (centres undefined) | 20.6 | 46.6 | –
9 | CN1CC[N+]2(CC1)CCN(P1(=O)NCCCO1)CC2.[Cl-] (centres undefined) | – | – | Inhibition (H22 [1]): 41.66%; inhibition in vivo at 60 mg/kg (H22 [3]): 38%; inhibition in vivo at 60 mg/kg (CCRF S-180 [4]): 55.2%; inhibition in vivo at 15 mg/kg (CCRF S-180 [5]): 37.5%; inhibition in vivo at 15 mg/kg (H22 [6]): 24.4%; Inhibition (CCRF S-180 [2]): 42.31%; LD50 [7]: 1200 mg/kg
10 | O=P1(N2CC[N+]3(CCCCC3)CC2)NCCCO1 (centres undefined) | 12.8 | 39.9 | –
11 | C[N+]1(Cc2ccccc2)CCN(P2(=O)NCCCO2)CC1 (centres undefined) | -6.63 | -3.28 | –
12 | O=P1(N2CC[N+]3(CCCCCC3)CC2)NCCCO1.[Cl-] (centres undefined) | 48.4 | 36 | inhibition in vivo at 60 mg/kg (H22 [3]): 51.3%; inhibition in vivo at 60 mg/kg (CCRF S-180 [4]): 53.4%; inhibition in vivo at 15 mg/kg (CCRF S-180 [5]): 38.2%; inhibition in vivo at 15 mg/kg (H22 [6]): 17.2%; LD50 [7]: 239 mg/kg
13 | CN1CC[N+]2(CC1)CCN(P1(=O)NCCCO1)CC2.[Br-] (centres undefined) | – | – | Inhibition (H22 [1]): 11.6%; Inhibition (CCRF S-180 [2]): 18.72%
14 | O=P1(N(CCCl)CCCl)NCCCO1 (centres undefined) [CYCLOPHOSPHAMIDE ANHYDROUS] | 72 | 72.9 | LD50 [7]: 387 mg/kg
15 | CN1CC[N+]2(CC1)CCN(P1(=O)NCCCO1)CC2.[I-] (centres undefined) | – | – | Inhibition (H22 [1]): 16.19%; Inhibition (CCRF S-180 [2]): 29.41%
